The text below walks through data of PubChem BioAssay (NCI).

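Interpolation was linear, between the two tested concentrations surrounding the appropriate level; five concentrations were tested over 48 hours in 96-well plates. GI50 = concentration required for 50% inhibition of growth. TGI is the concentration that stops growth completely.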

Experiment in all cases: DTP human tumour cell line panel, 48 h
Assay [1] concerns SW-620 colon.
For assay [2], the system named is U251 CNS.
In assay [3] the test system is OVCAR-5 ovarian.
In assay [4] the test system is IGROV1 ovarian.
For assay [5], the system named is MALME-3M melanoma.
Assay [6] has as its system ACHN renal.
For assay [7], the system named is A549 NSCLC.
Assay [8] has as its system HCT-15 colon.
Assay [9] relates to HL-60(TB) leukemia.
Assay [10] deals with UACC-62 melanoma.

The GI50 is the concentration giving 50% growth inhibition. In general, TGI refers to the concentration giving total growth inhibition. A low value points to more potent growth arrest. As for `C=C1C(=O)O[C@H]2[C@H]1CC/C(Cn1cc(CNC(=O)c3cc4ccccc4[nH]3)nn1)=C\CC[C@@]1(C)O[C@@H]21`, the GI50 is 1.97 µM in assay [1]; 8.24 µM in assay [2]; 2.51 µM in assay [3]; 3.24 µM in assay [4]; 1.75 µM in assay [5]; 4.73 µM in [6]. In addition, the GI50 in [7] is 22.1 µM; in [8], 10.2 µM; in assay [9] it was 2.45 µM; in [10], 1.57 µM. Also, the TGI in assay [1] was determined as 3.94 µM; in assay [2] it was 21.8 µM; in [3] it was 9.07 µM; in [4], 10.6 µM; in assay [5] it was 3.55 µM; in assay [6] it was 17.2 µM. In addition, the TGI in assay [7] amounted to 46.5 µM; in [8] it was 27.4 µM; in assay [9], 5.79 µM; in [10], 3.33 µM.
For `O=C1[C@@H]2C3C=CC([C@H]4C(=O)N(CO)C(=O)[C@@H]34)[C@@H]2C(=O)N1CO`, the total growth inhibition concentration (TGI) in assay [1] was over 65.5 µM; in assay [2], over 100 µM; in [3], over 100 µM; in assay [4], over 100 µM; in assay [5] it was over 100 µM; in assay [6] it was over 83.5 µM. Also, the TGI was over 100 µM in [7], over 56.7 µM in [8], 49.3 µM in assay [9] and over 100 µM in assay [10].
Take `Nc1n[nH]c(=O)c2c1c(Br)cn2C1OC(CO)C(O)C1O` (centres undefined): the TGI in [1] was over 100 µM; in [2], over 54.6 µM; in assay [3] it was 44 µM; in [4], over 100 µM; in assay [5], 54.7 µM; in assay [6] it was over 100 µM. The TGI in assay [7] was over 100 µM; in assay [8], 48.4 µM; in assay [9], 1.03 µM; in assay [10], 37.5 µM.
Take `C=CC(=O)N1CC[C@@H](Oc2nc(Nc3ccc(N4CCC(N5CCN(C)CC5)CC4)cc3)c(C(N)=O)nc2CC)C1`: the GI50 in assay [1], in assay [2], in assay [3], in assay [4], in [5] and in assay [6] was over 100 µM throughout. Further, the GI50 in assay [7], in [8], in assay [9] and in assay [10] was over 100 µM in each case. Also, the TGI in assay [1], in [2], in assay [3], in [4], in [5] and in assay [6] was over 100 µM each time. Further, the TGI in assay [7], in assay [8], in [9] and in assay [10] was over 100 µM throughout.
Regarding `COc1cc2c(c(OC)c1OC)-c1c(c3ccc([N+](=O)[O-])cc3c(=O)n1CCCN=[N+]=[N-])C2=O`, the GI50 in assay [1] was 33.6 µM; in [2], 8.36 µM; in assay [3], over 100 µM; in assay [4], 0.949 µM; in assay [5], 23.2 µM; in assay [6], 14.1 µM. Moreover, the GI50 in assay [7] is 0.36 µM; in assay [8] it was 44.6 µM; in [9] it was over 100 µM; in assay [10], 32.5 µM. Also, the TGI in assay [1] is over 100 µM; in assay [2], 23.3 µM; in [3], over 100 µM; in assay [4], 33.3 µM; in assay [5], 96.9 µM; in [6] it was 39.6 µM. Further, the TGI in assay [7], in [8], in assay [9] and in assay [10] was over 100 µM throughout.
Consider `C[As](C)SCC(COC(=O)c1ccccc1)OC(=O)c1ccccc1` (centres undefined), for which the GI50 is 0.0314 µM in assay [1]; 1.71 µM in assay [2]; 0.556 µM in assay [3]; 0.918 µM in [4]; 0.0369 µM in [6]; 1.45 µM in assay [7]. The GI50 was 0.0357 µM in [8], 0.0161 µM in [9] and 0.156 µM in assay [10]. In addition, the TGI in [1] amounted to 1.66 µM; in assay [2], 6.67 µM; in [3], 2 µM; in [4], 17.1 µM; in [5], 0.0345 µM; in assay [6], 0.285 µM. In addition, the TGI in assay [7] amounted to 11.3 µM; in assay [8], 1.4 µM; in assay [9], 0.1 µM; in assay [10], 1.37 µM.
Take `COc1ccc(C(=O)CC(Cl)=C(Cl)Cl)cc1`: the GI50 in [1] was 33.5 µM; in [2] it was 36 µM; in [3], 22.6 µM; in assay [4], 28.3 µM; in assay [5], 20.4 µM; in assay [6], 20.1 µM. Also, the GI50 is over 100 µM in [7], 28 µM in assay [8], 34.2 µM in [9] and 21.7 µM in assay [10]. The TGI is over 100 µM in assay [1]; over 100 µM in assay [2]; 50.4 µM in [3]; 75.9 µM in assay [4]; 43 µM in assay [5]; 41.4 µM in assay [6]. The TGI in [7] is over 100 µM; in [8] it was 97.4 µM; in [9], 95 µM; in assay [10], 49.9 µM.
Take `Cn1c([N+](=O)[O-])cnc1/C=C1\Oc2ccc(Cl)cc2C1=O`: the GI50 in [1] was 0.181 µM; in assay [2], 1.16 µM; in assay [3] it was 2.16 µM; in assay [4], 1.22 µM; in [5] it was 1.42 µM; in assay [6] it was 0.258 µM. Further, the GI50 in [7] is 1.95 µM; in assay [8] it was 0.251 µM; in assay [9], 0.511 µM; in assay [10], 1.24 µM. Also, the TGI in assay [1] turned out to be 0.66 µM; in assay [2], 3.01 µM; in assay [3], 6.53 µM; in [4], 8.29 µM; in assay [5] it was 4.78 µM; in assay [6] it was 0.921 µM. In addition, the TGI in assay [7] was determined as 5.88 µM; in assay [8] it was 1.04 µM; in [9] it was 4.67 µM; in [10] it was 3.27 µM.
